According to ChEMBL document CHEMBL4411299, “A class of novel tubulin polymerization inhibitors exert effective anti-tumor activity via mitotic catastrophe” (Eur J Med Chem, 2019):
The source made the active and inactive calls. The calls are words filed in the database; no cut-off is given here.

Legend:
HepG2 = assay: Antiproliferative activity against human HepG2 cells after 48 hrs by MTT assay; type: functional; settings: HepG2, 48 h
A549 = assay: Antiproliferative activity against human A549 cells after 48 hrs by MTT assay; type: functional; settings: A549, 48 h
HT-29 = assay: Antiproliferative activity against human HT-29 cells after 48 hrs by MTT assay; type: functional; settings: HT-29, 48 h
HeLa [1] = assay: Antiproliferative activity against human HeLa cells after 48 hrs by MTT assay; type: functional
MDA-MB-231 = assay: Antiproliferative activity against human MDA-MB-231 cells after 48 hrs by MTT assay; type: functional; settings: MDA-MB-231, 48 h
A2780 = assay: Antiproliferative activity against human A2780 cells after 48 hrs by MTT assay; type: functional; settings: A2780, 48 h
HeLa [2] = assay: Induction of apoptosis in human HeLa cells assessed as viable cells at 0.05 uM after 24 hrs by Annexin V-FITC/propidium iodide staining-based flow cytometric analysis (reference value: 92.8%); type: functional; settings: read-out: Activity
HeLa [3] = assay: Induction of apoptosis in human HeLa cells assessed as early apoptotic cells at 0.05 uM after 24 hrs by Annexin V-FITC/propidium iodide staining-based flow cytometric analysis (reference value: 3.65%); type: functional
HeLa [4] = assay: Induction of apoptosis in human HeLa cells assessed as late apoptotic cells at 0.05 uM after 24 hrs by Annexin V-FITC/propidium iodide staining-based flow cytometric analysis (reference value: 3.51%); type: functional
HeLa [5] = assay: Induction of apoptosis in human HeLa cells assessed as necrotic cells at 0.05 uM after 24 hrs by Annexin V-FITC/propidium iodide staining-based flow cytometric analysis (reference value: 0.05%); type: functional
HeLa [6] = assay: Antitumor activity against human HeLa cells xenografted in nude mouse assessed as tumor growth inhibition at 10 mg/kg, iv administered every other day up to 20 days relative to control; type: functional; settings: 480 h, read-out: TGI
HeLa [7] = assay: Antitumor activity against human HeLa cells xenografted in nude mouse assessed as tumor weight at 10 mg/kg, iv administered every other day up to 20 days (reference value: 1.014 +/- 0.116g); type: functional
HeLa [8] = assay: Inhibition of colony formation in human HeLa cells after 2 weeks by crystal violet staining-based assay; type: functional, cell-based
HeLa [9] = assay: Induction of apoptosis in human HeLa cells assessed as viable cells at 0.2 uM after 24 hrs by Annexin V-FITC/propidium iodide staining-based flow cytometric analysis (reference value: 92.8%); type: functional; settings: read-out: Activity
HeLa [10] = assay: Induction of apoptosis in human HeLa cells assessed as early apoptotic cells at 0.2 uM after 24 hrs by Annexin V-FITC/propidium iodide staining-based flow cytometric analysis (reference value: 3.65%); type: functional
HeLa [11] = assay: Induction of apoptosis in human HeLa cells assessed as late apoptotic cells at 0.2 uM after 24 hrs by Annexin V-FITC/propidium iodide staining-based flow cytometric analysis (reference value: 3.51%); type: functional
HeLa [12] = assay: Induction of apoptosis in human HeLa cells assessed as necrotic cells at 0.2 uM after 24 hrs by Annexin V-FITC/propidium iodide staining-based flow cytometric analysis (reference value: 0.05%); type: functional
HeLa [13] = assay: Induction of apoptosis in human HeLa cells assessed as viable cells at 0.4 uM after 24 hrs by Annexin V-FITC/propidium iodide staining-based flow cytometric analysis (reference value: 92.8%); type: functional; settings: read-out: Activity
HeLa [14] = assay: Induction of apoptosis in human HeLa cells assessed as early apoptotic cells at 0.4 uM after 24 hrs by Annexin V-FITC/propidium iodide staining-based flow cytometric analysis (reference value: 3.65%); type: functional
HeLa [15] = assay: Induction of apoptosis in human HeLa cells assessed as late apoptotic cells at 0.4 uM after 24 hrs by Annexin V-FITC/propidium iodide staining-based flow cytometric analysis (reference value: 3.51%); type: functional
HeLa [16] = assay: Induction of apoptosis in human HeLa cells assessed as necrotic cells at 0.4 uM after 24 hrs by Annexin V-FITC/propidium iodide staining-based flow cytometric analysis (reference value: 0.05%); type: functional
HeLa [17] = assay: Cell cycle arrest in human HeLa cells assessed as accumulation of cells at G2/M phase at 0.1 to 2 uM after 6 to 24 hrs by propidium iodide staining-based flow cytometric analysis; type: functional
Tubulin (Homo sapiens) [18] = target: T1, Tubulin (Homo sapiens) (UniProt P68371+Q9H4B7+P0DPH7+P68366+Q13509+Q71U36+P04350+Q3ZCM7+P07437+P68363+Q9BQE3+Q6PEY2+Q13885+Q9BVA1+Q9BUF5); assay: Induction of tubulin polymerization in human HeLa cells assessed as increase in density of microtubule polymerization at 0.05 after 12 hrs by DAPI staining-based confocal fluorescence microscopic analysis; type: cell-based
Tubulin (Homo sapiens) [19] = target: T1, Tubulin (Homo sapiens); assay: Induction of tubulin polymerization in human HeLa cells assessed as induction of long thick microtubule bundles at 0.05 after 12 hrs by DAPI staining-based confocal fluorescence microscopic analysis; type: cell-based

GI50 (HepG2) | GI50 (A549) | GI50 (HT-29) | GI50 (HeLa [1]) | GI50 (MDA-MB-231) | GI50 (A2780) | Compound | other results
9.15 µM | 7.32 µM | 10.7 µM | 5.48 µM | 8.94 µM | 29.9 µM | COC(=O)N1N=C(c2ccccc2)CC1c1ccc(OC)c(OC)c1 (stereo unspecified) | –
5.82 µM | 5.92 µM | 7.86 µM | 4.11 µM | 9.1 µM | 7.3 µM | CCOC(=O)N1N=C(c2cccc(OC)c2)CC1c1cc(OC)c(OC)c(OC)c1 (stereo unspecified) | –
6.53 µM | 5.32 µM | 14.9 µM | 2.47 µM | > 10 µM | > 10 µM | COC(=O)N1N=C(c2ccccc2)CC1c1cc(OC)c(OC)cc1OC (stereo unspecified) | –
> 10 µM | > 10 µM | > 10 µM | > 10 µM | > 10 µM | > 10 µM | COc1cc(C2CC(c3cccc(O)c3)=NN2C(=O)OCc2ccccc2)cc(OC)c1OC (stereo unspecified) | –
9.72 µM | 12.6 µM | 7.85 µM | 5.68 µM | 11.1 µM | 14 µM | COC(=O)N1N=C(c2cc(OC)c(OC)c(OC)c2)CC1c1cc(OC)c(OC)c(OC)c1 (stereo unspecified) | –
> 10 µM | > 10 µM | > 10 µM | > 10 µM | > 10 µM | > 10 µM | COc1cc(C2CC(c3ccccc3)=NN2C(=O)OCc2ccccc2)cc(OC)c1OC (stereo unspecified) | –
> 10 µM | > 10 µM | 15.2 µM | > 10 µM | 10 µM | 11.1 µM | CCCOC(=O)N1N=C(c2cccc(O)c2)CC1c1cc(OC)c(OC)c(OC)c1 (stereo unspecified) | –
> 10 µM | > 10 µM | > 10 µM | > 10 µM | > 10 µM | > 10 µM | COC(=O)N1N=C(c2ccccc2)CC1c1ccccc1 (stereo unspecified) | –
7.82 µM | 8.57 µM | 6.77 µM | 1.14 µM | 7.15 µM | 2.52 µM | COC(=O)N1N=C(c2ccc(O)cc2)CC1c1cc(OC)c(OC)c(OC)c1 (stereo unspecified) | –
> 10 µM | > 10 µM | > 10 µM | > 10 µM | > 10 µM | > 10 µM | COc1ccc(C2=NN(C(=O)OCc3ccccc3)C(c3cc(OC)c(OC)c(OC)c3)C2)cc1 (stereo unspecified) | –
9.81 µM | 8.93 µM | 3.5 µM | 7.52 µM | 14.5 µM | 4.96 µM | COC(=O)N1N=C(c2ccccc2)CC1c1ccc(OC)c(O)c1 (stereo unspecified) | –
9.4 µM | 4.69 µM | 6.73 µM | 8.71 µM | 2.66 µM | 9.27 µM | CCOC(=O)N1N=C(c2ccc(OC)cc2)CC1c1cc(OC)c(OC)c(OC)c1 (stereo unspecified) | –
1.24 µM | 0.34 µM | 0.14 µM | 0.16 µM | 0.11 µM | 1.54 µM | COC(=O)N1N=C(c2cccc(Cl)c2)CC1c1cc(OC)c(OC)c(OC)c1 (stereo unspecified) | inhibition (HeLa [8]): Dose-dependent effect; viability at 0.2 µM (HeLa [9]): 93%; Activity (HeLa [10]): 3.3%; Activity (HeLa [11]): 3.19%; Activity (HeLa [12]): 0.481%; viability at 0.4 µM (HeLa [13]): 93.1%; Activity (HeLa [14]): 3.26%; Activity (HeLa [15]): 3.13%; Activity (HeLa [16]): 0.511%; Activity (HeLa [17]): Active
1.87 µM | 2.59 µM | 1.3 µM | 1.53 µM | 0.35 µM | 2.78 µM | COC(=O)N1N=C(c2cccc(OC)c2)CC1c1cc(OC)c(OC)c(OC)c1 (stereo unspecified) | –
> 10 µM | > 10 µM | 12.7 µM | > 10 µM | 20.4 µM | 11.7 µM | CCCOC(=O)N1N=C(c2ccc(OC)cc2)CC1c1cc(OC)c(OC)c(OC)c1 (stereo unspecified) | –
4.21 µM | 3.93 µM | 9.2 µM | 3.39 µM | 9.9 µM | 11.4 µM | COC(=O)N1N=C(c2ccc(OC)c(OC)c2)CC1c1cc(OC)c(OC)c(OC)c1 (stereo unspecified) | –
– | – | – | – | – | – | CC(=O)O[C@H]1C(=O)[C@@]2(C)[C@H]([C@H](OC(=O)c3ccccc3)[C@]3(O)C[C@H](OC(=O)[C@H](O)[C@@H](NC(=O)c4ccccc4)c4ccccc4)C(C)=C1C3(C)C)[C@]1(OC(C)=O)CO[C@@H]1C[C@@H]2O | Activity (Tubulin (Homo sapiens) [18]): Active; Activity (Tubulin (Homo sapiens) [19]): Active
> 10 µM | > 10 µM | > 10 µM | > 10 µM | > 10 µM | > 10 µM | COc1cccc(C2=NN(C(=O)OCc3ccccc3)C(c3cc(OC)c(OC)c(OC)c3)C2)c1 (stereo unspecified) | –
5.95 µM | 6.68 µM | 8.92 µM | 8.23 µM | 5.61 µM | 6.72 µM | CCOC(=O)N1N=C(c2ccccc2)CC1c1cc(OC)c(OC)c(OC)c1 (stereo unspecified) | –
12 µM | 15.3 µM | > 10 µM | 12.7 µM | > 10 µM | > 10 µM | COC(=O)N1N=C(c2ccccc2)CC1c1ccc(OC)cc1 (stereo unspecified) | –
1.79 µM | 5.12 µM | 11.6 µM | 3.28 µM | 4.71 µM | 9.75 µM | CCOC(=O)N1N=C(c2cccc(O)c2)CC1c1cc(OC)c(OC)c(OC)c1 (stereo unspecified) | –
> 10 µM | > 10 µM | > 10 µM | > 10 µM | 14.4 µM | 10.8 µM | CCCOC(=O)N1N=C(c2ccccc2)CC1c1cc(OC)c(OC)c(OC)c1 (stereo unspecified) | –
1.71 µM | 3.4 µM | 2.55 µM | 2.59 µM | 1.99 µM | 5 µM | COC(=O)N1N=C(c2ccc(OC)cc2)CC1c1cc(OC)c(OC)c(OC)c1 (stereo unspecified) | –
> 10 µM | > 10 µM | > 10 µM | > 10 µM | 12.5 µM | > 10 µM | CCCOC(=O)N1N=C(c2cccc(OC)c2)CC1c1cc(OC)c(OC)c(OC)c1 (stereo unspecified) | –
0.65 µM | 3.17 µM | 1.35 µM | 1.97 µM | 0.74 µM | 0.81 µM | COC(=O)N1N=C(c2cccc(O)c2)CC1c1cc(OC)c(OC)c(OC)c1 (stereo unspecified) | –
3.95 µM | 2.88 µM | 6.26 µM | 2.18 µM | 1.08 µM | 2.77 µM | COC(=O)N1N=C(c2ccccc2)CC1c1cc(OC)c(OC)c(OC)c1 (stereo unspecified) | –
7.49 µM | 5.88 µM | > 10 µM | 3.49 µM | 10.6 µM | > 10 µM | COC(=O)N1N=C(c2ccccc2)CC1c1c(OC)cc(OC)cc1OC (stereo unspecified) | –
8.36 µM | 5.29 µM | 4.45 µM | 4.97 µM | 0.19 µM | 0.76 µM | CCOc1cccc(C2=NN(C(=O)OC)C(c3cc(OC)c(OC)c(OC)c3)C2)c1 (stereo unspecified) | –

Compound | GI50 (HepG2) | GI50 (A549) | GI50 (HT-29) | GI50 (HeLa [1]) | GI50 (MDA-MB-231) | GI50 (A2780) | other results
COc1ccc(/C=C\c2cc(OC)c(OC)c(OC)c2)cc1OP(=O)([O-])[O-].[Na+].[Na+] [FOSBRETABULIN DISODIUM] | 0.19 µM | 0.16 µM | 0.062 µM | 0.019 µM | 0.065 µM | 0.32 µM | viability at 0.05 µM (HeLa [2]): 75.4%; Activity (HeLa [3]): 18.9%; Activity (HeLa [4]): 5.08%; Activity (HeLa [5]): 0.6%; inhibition in vivo at 10 mg/kg (HeLa [6]): 79.4%; Activity (HeLa [7]): 0.187 g
